Earlier results in patent US20260137644A1, “COMPOSITIONS INCLUDING CAFFEIC ACID PHENETHYL ESTER” (XMK THERAPEUTICS INC., priority 2022, published 2026).

Key:
[1] = tested on: carrageenin-induced inflammation
NFAT = conditions: Jurkat cells

For `O=C(/C=C/c1ccc(O)c(O)c1)OCCc1ccccc1` [CAPE, 2-phenylethyl (E)-3-(3,4-dihydroxyphenyl)prop-2-enoate], the “interleukin-2 (IL-2) gene transcription and synthesis” value (interleukin-2 (IL-2)) is listed as “inhibition”, the antimicrobial activity (Listeria monocytogenes) is listed as “active” and the antimicrobial activity (Enterococcus faecalis) is listed as “active”. The exudate volume [1] was “suppresses”, the leukocytes relocation [1] was “suppresses” and the antimicrobial activity (Staphylococcus aureus) was “active”. The antimicrobial activity (Haemophilus influenzae) was “active” and the “binding with DNA and transcriptional activity of NFAT” value (NFAT) was “inhibition”.
